Results published in publication PMC11191095, “QSAR Reveals Decreased Lipophilicity of Polar Residues Determines the Selectivity of Antimicrobial Peptide Activity” (ACS Omega, 2024).
Where a SMILES comes first, the peptide text is derived from it.

Legend:
Assay in all cases: microbe, parasite or virus in culture
P. aeruginosa NCTC 13437 = format: cell-based, Pseudomonas aeruginosa; conditions: P. aeruginosa NCTC 13437 (R)
Summary of the method: (§1)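 Peptides 128→2 μg/mL, 2-fold series; inoculum ~5 × 10^5 CFU/mL from overnight culture (OD600 0.01, mixed 1:1). MHB non-cation-adjusted for bacteria, RPMI 1640 + 2% glucose for fungi. 37 °C, 20 h, OD600. MIC50/MIC90 at 50%/90% inhibition; n ≥ 3.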

A. baumannii ATCC 17978 = format: cell-based, Acinetobacter baumannii; conditions: A. baumannii ATCC 17978 (S)
Summary of the method: as §1

A. baumannii AYE = format: cell-based, Acinetobacter baumannii; conditions: A. baumannii AYE (R)
Summary of the method: as §1

C. krusei NCPF 3876 = format: cell-based; conditions: C. krusei NCPF 3876
Summary of the method: as §1

C. albicans NCPF 3281 = format: cell-based; conditions: C. albicans NCPF 3281
Summary of the method: as §1

C. glabrata NCPF 8018 = format: cell-based; conditions: C. glabrata NCPF 8018
Summary of the method: as §1

C. tropicalis NCPF 8760 = format: cell-based; conditions: C. tropicalis NCPF 8760
Summary of the method: as §1

[1] = tested on: C. parapsilosis NCPF 3209; format: cell-based; conditions: C. parapsilosis NCPF 3209
Summary of the method: as §1

[2] = tested on: S. aureus (MRSA) NCTC 13616; format: cell-based, Staphylococcus aureus; conditions: S. aureus (MRSA) NCTC 13616 (R)
Summary of the method: as §1

S. aureus (MRSA) USA300 = format: cell-based, Staphylococcus aureus; conditions: S. aureus (MRSA) USA300 (R)
Summary of the method: as §1

S. aureus (MRSA) 1199B = format: cell-based, Staphylococcus aureus; conditions: S. aureus (MRSA) 1199B (R)
Summary of the method: as §1

[3] = tested on: S. aureus (MSSA) ATCC 9144; format: cell-based, Staphylococcus aureus; conditions: S. aureus (MSSA) ATCC 9144 (S)
Summary of the method: as §1

E. coli NCTC 12923 = format: cell-based, Escherichia coli; conditions: E. coli NCTC 12923 (S)
Summary of the method: as §1

E. coli LEC001 = format: cell-based, Escherichia coli; conditions: E. coli LEC001 (R)
Summary of the method: as §1

K. pneumoniae NCTC 13368 = format: cell-based, Klebsiella pneumoniae; conditions: K. pneumoniae NCTC 13368 (R)
Summary of the method: as §1

K. pneumoniae M6 = format: cell-based, Klebsiella pneumoniae; conditions: K. pneumoniae M6 (S)
Summary of the method: as §1

[4] = MHB, 37 °C, 20 h, OD600, min. three biological repeats
[5] = 50% growth inhibition, RPMI 1640 + 2% glucose, 37 °C, 20 h
[6] = 90% growth inhibition, RPMI 1640 + 2% glucose, 37 °C, 20 h
[7] = MHB, ~5×10^5 CFU/mL, 37 °C, 20 h, OD600, min. three biological repeats

With `CC[C@H](C)[C@H](NC(=O)[C@H](CCCCN)NC(=O)[C@H](CC(C)C)NC(=O)[C@H](C)NC(=O)[C@H](C)NC(=O)[C@H](CCCCN)NC(=O)[C@H](CC(C)C)NC(=O)[C@H](C)NC(=O)[C@@H](N)CCCCN)C(=O)NCC(N)=O` [CPF-P3-10a] (H-KALKAALKIG-NH2) the “Modal MIC” value (P. aeruginosa NCTC 13437; [4]) was greater than 128 µg/mL, the “Modal MIC” value (P. aeruginosa NCTC 13437; shown in µM) was greater than 122 µM and the “Modal MIC” value (A. baumannii ATCC 17978; [4]) was greater than 128 µg/mL. For the same compound, the “Modal MIC” value (A. baumannii ATCC 17978; shown in µM) was greater than 122 µM, the “Modal MIC” value (A. baumannii AYE; [4]) was greater than 128 µg/mL and the “Modal MIC” value (A. baumannii AYE; shown in µM) was greater than 122 µM. For the same compound, the “Modal MIC50” value (C. krusei NCPF 3876; [5]) was greater than 128 µg/mL, the “Modal MIC90” value (C. krusei NCPF 3876; [6]) was greater than 128 µg/mL and the “Modal MIC50” value (C. krusei NCPF 3876; shown in µM) was greater than 122 µM. For the same compound, the “Modal MIC90” value (C. krusei NCPF 3876; shown in µM) was greater than 122 µM, the “Modal MIC50” value (C. albicans NCPF 3281; [5]) was greater than 128 µg/mL and the “Modal MIC90” value (C. albicans NCPF 3281; [6]) was greater than 128 µg/mL. The “Modal MIC50” value (C. albicans NCPF 3281; shown in µM) was greater than 122 µM, the “Modal MIC90” value (C. albicans NCPF 3281; shown in µM) was greater than 122 µM and the “Modal MIC50” value (C. glabrata NCPF 8018; [5]) was greater than 128 µg/mL. For the same compound, the “Modal MIC90” value (C. glabrata NCPF 8018; [6]) was greater than 128 µg/mL, the “Modal MIC50” value (C. glabrata NCPF 8018; shown in µM) was greater than 122 µM and the “Modal MIC90” value (C. glabrata NCPF 8018; shown in µM) was greater than 122 µM. The “Modal MIC50” value (C. tropicalis NCPF 8760; [5]) was greater than 128 µg/mL, the “Modal MIC90” value (C. tropicalis NCPF 8760; [6]) was greater than 128 µg/mL and the “Modal MIC50” value (C. tropicalis NCPF 8760; shown in µM) was greater than 122 µM. The “Modal MIC90” value (C. tropicalis NCPF 8760; shown in µM) was greater than 122 µM, the “Modal MIC50” value [1, 5] was greater than 128 µg/mL and the “Modal MIC90” value [1, 6] was greater than 128 µg/mL. The “Modal MIC50” value ([1]; shown in µM) was greater than 122 µM, the “Modal MIC90” value ([1]; shown in µM) was greater than 122 µM and the “Modal MIC” value [2, 4] was greater than 128 µg/mL. For the same compound, the “Modal MIC” value ([2]; shown in µM) was greater than 122 µM, the “Modal MIC” value (S. aureus (MRSA) USA300; [4]) was greater than 128 µg/mL and the “Modal MIC” value (S. aureus (MRSA) USA300; shown in µM) was greater than 122 µM. For the same compound, the “Modal MIC” value (S. aureus (MRSA) 1199B; [4]) was greater than 128 µg/mL, the “Modal MIC” value (S. aureus (MRSA) 1199B; shown in µM) was greater than 122 µM and the “Modal MIC” value [3, 4] was greater than 128 µg/mL. The “Modal MIC” value ([3]; shown in µM) was greater than 122 µM, the “Modal MIC” value (E. coli NCTC 12923; [7]) was greater than 128 µg/mL and the “Modal MIC” value (E. coli NCTC 12923; shown in µM) was greater than 122 µM. For the same compound, the “Modal MIC” value (E. coli LEC001; [4]) was greater than 128 µg/mL, the “Modal MIC” value (E. coli LEC001; shown in µM) was greater than 122 µM and the “Modal MIC” value (K. pneumoniae NCTC 13368; [4]) was greater than 128 µg/mL. The “Modal MIC” value (K. pneumoniae NCTC 13368; shown in µM) was greater than 122 µM, the “Modal MIC” value (K. pneumoniae M6; [4]) was greater than 128 µg/mL and the “Modal MIC” value (K. pneumoniae M6; shown in µM) was greater than 122 µM.
`CC[C@H](C)[C@H](NC(=O)CNC(=O)[C@@H](N)CCCCN)C(=O)N[C@@H](CCCNC(=N)N)C(=O)NCC(=O)N[C@@H](Cc1ccc(O)cc1)C(=O)N[C@@H](CCCCN)C(=O)NCC(=O)NCC(=O)N[C@@H](Cc1ccc(O)cc1)C(=O)N[C@@H](CS)C(=O)N[C@@H](CCCCN)C(=O)NCC(=O)N[C@@H](C)C(=O)N[C@@H](Cc1ccccc1)C(=O)N[C@@H](CCCCN)C(=O)N[C@@H](CCC(N)=O)C(=O)N[C@H](C(=O)N[C@@H](CS)C(=O)N[C@@H](CCCCN)C(=O)N[C@@H](CS)C(=O)N[C@@H](Cc1ccc(O)cc1)C(=O)O)[C@@H](C)O` [Os] (H-KGIRGYKGGYCKGAFKQTCKCY-OH; N-terminus and C-terminus assumed) was tested, and the “Modal MIC” value (P. aeruginosa NCTC 13437; [4]) was greater than 128 µg/mL, the “Modal MIC” value (P. aeruginosa NCTC 13437; shown in µM) was greater than 51.7 µM and the “Modal MIC” value (A. baumannii ATCC 17978; [4]) was greater than 128 µg/mL. For the same compound, the “Modal MIC” value (A. baumannii ATCC 17978; shown in µM) was greater than 51.7 µM, the “Modal MIC” value (A. baumannii AYE; [4]) was greater than 128 µg/mL and the “Modal MIC” value (A. baumannii AYE; shown in µM) was greater than 51.7 µM. For the same compound, the “Modal MIC50” value (C. krusei NCPF 3876; [5]) was greater than 128 µg/mL, the “Modal MIC90” value (C. krusei NCPF 3876; [6]) was greater than 128 µg/mL and the “Modal MIC50” value (C. krusei NCPF 3876; shown in µM) was greater than 51.7 µM. The “Modal MIC90” value (C. krusei NCPF 3876; shown in µM) was greater than 51.7 µM, the “Modal MIC50” value (C. albicans NCPF 3281; [5]) was greater than 128 µg/mL and the “Modal MIC90” value (C. albicans NCPF 3281; [6]) was greater than 128 µg/mL. The “Modal MIC50” value (C. albicans NCPF 3281; shown in µM) was greater than 51.7 µM, the “Modal MIC90” value (C. albicans NCPF 3281; shown in µM) was greater than 51.7 µM and the “Modal MIC50” value (C. glabrata NCPF 8018; [5]) was greater than 128 µg/mL. The “Modal MIC90” value (C. glabrata NCPF 8018; [6]) was greater than 128 µg/mL, the “Modal MIC50” value (C. glabrata NCPF 8018; shown in µM) was greater than 51.7 µM and the “Modal MIC90” value (C. glabrata NCPF 8018; shown in µM) was greater than 51.7 µM. The “Modal MIC50” value (C. tropicalis NCPF 8760; [5]) was greater than 128 µg/mL, the “Modal MIC90” value (C. tropicalis NCPF 8760; [6]) was greater than 128 µg/mL and the “Modal MIC50” value (C. tropicalis NCPF 8760; shown in µM) was greater than 51.7 µM. The “Modal MIC90” value (C. tropicalis NCPF 8760; shown in µM) was greater than 51.7 µM, the “Modal MIC50” value [1, 5] was greater than 128 µg/mL and the “Modal MIC90” value [1, 6] was greater than 128 µg/mL. The “Modal MIC50” value ([1]; shown in µM) was greater than 51.7 µM, the “Modal MIC90” value ([1]; shown in µM) was greater than 51.7 µM and the “Modal MIC” value [2, 4] was greater than 128 µg/mL. For the same compound, the “Modal MIC” value ([2]; shown in µM) was greater than 51.7 µM, the “Modal MIC” value (S. aureus (MRSA) USA300; [4]) was greater than 128 µg/mL and the “Modal MIC” value (S. aureus (MRSA) USA300; shown in µM) was greater than 51.7 µM. The “Modal MIC” value (S. aureus (MRSA) 1199B; [4]) was greater than 128 µg/mL, the “Modal MIC” value (S. aureus (MRSA) 1199B; shown in µM) was greater than 51.7 µM and the “Modal MIC” value [3, 4] was greater than 128 µg/mL. For the same compound, the “Modal MIC” value ([3]; shown in µM) was greater than 51.7 µM, the “Modal MIC” value (E. coli NCTC 12923; [7]) was greater than 128 µg/mL and the “Modal MIC” value (E. coli NCTC 12923; shown in µM) was greater than 51.7 µM. For the same compound, the “Modal MIC” value (E. coli LEC001; [4]) was greater than 128 µg/mL, the “Modal MIC” value (E. coli LEC001; shown in µM) was greater than 51.7 µM and the “Modal MIC” value (K. pneumoniae NCTC 13368; [4]) was greater than 128 µg/mL. The “Modal MIC” value (K. pneumoniae NCTC 13368; shown in µM) was greater than 51.7 µM, the “Modal MIC” value (K. pneumoniae M6; [4]) was greater than 128 µg/mL and the “Modal MIC” value (K. pneumoniae M6; shown in µM) was greater than 51.7 µM.
